Key:
[1] = system: polarized CD4+ T-regulatory cells; test: cytotoxicity in polarized CD4+ T-regulatory cells; format: cell-based, murine; conditions: for cytotoxicity to Tregs: 156 ng/mL to 5 ug/mL, compared to DMSO controls; for toxicity: Example 5, no concentration given
Procedure: FIG. 2: Cytotoxicity of compounds from 156 ng/mL to 5 ug/mL concentration range in polarized CD4+ T-regulatory cells. Murine CD4+ T-cells were isolated and polarized in vitro to T-regulatory cells using 5 ng/mL IL-2, 2 μg/mL anti-IL-4, 2 μg/mL anti-IFNγ, and 1 ng/mL TGFβ. After 48 hours, the inhibitors were added to the cells.
We then synthesized all 17 compounds and validated their cytotoxicity to regulatory T cells. To this end, mouse CD4 T cells were polarized to FoxP3 Tregs for two days, followed by treatment of the cells with each of the compounds at the doses upto 5 ug/ml. […] In addition, the rest of the compounds had poor solubility in DMSO, and were not further tested.

[2] = target: human GST-USP22 with Sgf11, Sgf73 1-105 and Sus1 (Homo sapiens, UniProt Q9UPT9); test: in vitro USP22 deubiquitination assay (re-constructed deubiquitination module); format: biochemical; conditions: for IC50: customized deubiquitination assay, human GST-USP22 with Sgf11, Sgf73 1-105, Sus1, read-out: IC50 in suppressing USP22 in vitro catalytic activity
human GST-USP22 with Sgf11, Sgf73 1-105 and Sus1, sequence (Q9UPT9 whole entry): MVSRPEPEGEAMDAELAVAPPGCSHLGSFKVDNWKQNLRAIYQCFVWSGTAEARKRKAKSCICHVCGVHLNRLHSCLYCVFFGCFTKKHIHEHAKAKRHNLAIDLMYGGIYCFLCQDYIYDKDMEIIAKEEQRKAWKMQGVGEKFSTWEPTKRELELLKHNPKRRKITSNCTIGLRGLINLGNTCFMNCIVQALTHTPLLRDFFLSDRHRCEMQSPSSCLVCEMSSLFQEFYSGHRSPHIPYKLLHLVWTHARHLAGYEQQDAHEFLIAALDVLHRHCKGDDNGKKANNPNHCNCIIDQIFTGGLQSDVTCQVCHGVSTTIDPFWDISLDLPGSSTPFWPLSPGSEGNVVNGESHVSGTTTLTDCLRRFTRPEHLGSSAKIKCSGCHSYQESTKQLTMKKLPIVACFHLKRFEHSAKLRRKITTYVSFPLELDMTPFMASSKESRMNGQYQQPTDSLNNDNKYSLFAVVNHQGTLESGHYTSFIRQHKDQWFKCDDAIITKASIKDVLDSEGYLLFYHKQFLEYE
human GST-USP22 with Sgf11, Sgf73 1-105 and Sus1, sequence (Q14CW9 whole entry partner): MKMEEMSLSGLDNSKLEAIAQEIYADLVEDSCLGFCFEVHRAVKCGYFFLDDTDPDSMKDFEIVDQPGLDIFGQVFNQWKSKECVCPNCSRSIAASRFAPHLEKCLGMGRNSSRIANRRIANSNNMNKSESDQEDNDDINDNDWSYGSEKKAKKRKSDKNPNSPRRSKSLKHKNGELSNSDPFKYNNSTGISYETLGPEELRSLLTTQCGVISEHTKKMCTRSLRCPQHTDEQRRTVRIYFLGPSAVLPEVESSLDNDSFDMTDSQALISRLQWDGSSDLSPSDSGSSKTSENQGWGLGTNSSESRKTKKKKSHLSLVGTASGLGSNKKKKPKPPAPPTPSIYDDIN
human GST-USP22 with Sgf11, Sgf73 1-105 and Sus1, sequence (O15265 1-105 partner limits assumed): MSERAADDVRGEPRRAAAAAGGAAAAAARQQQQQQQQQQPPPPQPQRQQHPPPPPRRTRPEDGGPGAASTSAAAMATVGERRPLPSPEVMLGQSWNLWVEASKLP
human GST-USP22 with Sgf11, Sgf73 1-105 and Sus1, sequence (Q9NPA8 whole entry partner): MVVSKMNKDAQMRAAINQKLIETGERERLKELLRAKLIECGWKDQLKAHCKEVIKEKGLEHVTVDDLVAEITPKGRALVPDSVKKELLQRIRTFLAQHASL
Procedure: (A) The chemical structure of S02-S106 11-((4-cyanophenyl)amino)-7,8,9,10-tetrahydrobenzo(4,5)imidazole[1,2-b]isoquinoline-6-carbonitrile, (B & C) The efficacy of USP22i-S02 analogs in inhibiting USP22 catalytic activity was determined in vitro. The representative data from a triplicate analysis of S02-S106 with S02 as a control are shown (B). The IC50 of USP22i-S02 analogs in suppressing USP22 in vitro catalytic activity are shown (C). NA, not available.
We purchased human recombinant Sgf11 and Sgf73 1-105 and Sus1 proteins from R&D Systems Inc, and re-constructed the deubiquitination activity with our human GST-USP22. The USP22 customized deubiquitination was optimized and used for in vitro screening the activity of synthetic USP22i-s02 analogs with the USP22i-s02 as a control (FIG. 12).

[3] = system: PD-L1 expression in A549 cells; test: PD-L1 expression in A549 cells by flow cytometry; format: cell-based, human
Procedure: FIG. 13: The effects of USP22i-S02-S106 on suppression of PD-L1 expression on human lung adenocarcinoma cells. Human […] lung adenocarcinoma A549 cells were treated with S02-S106 or its lead compound S02 for 48 hours. The expression levels of PD-L1 were determined by flow cytometry. (A) Representative flow data from A549 cells treated with 2 μM S02-S106 or with 15 μM S02 are shown. DMSO treated cells were used as an untreated control and USP22 CRISPR knockout A549 cells were used as a positive control. (B) The dose-dependent inhibition of PD-L1 expression in A549 cells by S02-S106 with USP22i-S02 as a control. Data were normalized with PD-L1 expression levels in USP22-KO cells as 100% of USP22 inhibition as shown in A. (C) Inhibition of PD-L1 expression in WT and USP22-null A549 cells by S02-S106.
We then used PD-L1 expression level as a measurement to evaluate the inhibitory efficacy of USP22 by S02-S106.
To determine the specificity of USP22i-S02-S106, we treated the WT and USP22-null lung cancer cells.

[4] = system: FoxP3 expression in CD4+ natural T-regulatory cells; test: FoxP3 expression in natural T-regulatory cells by flow cytometry; format: cell-based, murine
Procedure: FIGS. 3 and 4: Change in FoxP3 expression in murine CD4+ natural T-regulatory cells. Murine lymphocytes were isolated from the spleens and lymph nodes and cultured with varying concentrations of inhibitor (0.25 μg/mL to 2 μg/mL) or DMSO, anti-CD3, anti-CD28, TGFβ, and IL-2. After two days, lymphocytes were analyzed by flow cytometry for FoxP3 expression in natural T-regulatory (nTregs) gated on CD3+CD4+CD25+FoxP3+. (FIG. 3) Representative histograms of FITC::FoxP3 MFI in nTregs cultured with inhibitors at a concentration of 2 μg/mL. (FIG. 4) Representative plot of FITC::FoxP3 geometric MFI in nTregs across different concentrations of inhibitor.
We then analyzed whether treatment of Tregs with the compounds S106, 107 and 110 inhibits USP22 activity in Tregs as measured by FoxP3 expression levels by flow cytometry.

Compound: Cn1c2nc3ccccc3c-2c(Nc2ccccc2)c2ccccc21 [Compound S201, N5-methyl-N-phenyl-5H-indolo[2,3-b]quinolin-11-amine]
- cytotoxicity to Tregs [1]: extremely toxic

Compound: N,5-dimethyl-5H-indolo[2,3-b]quinolin-11-amine compound with anisole [Compound S202]
- cytotoxicity to Tregs [1]: extremely toxic

Compound: N#Cc1ccc(Nc2c3c(c(C#N)c4nc5ccccc5n24)CCCC3)cc1 [Compound S02-S106, 11-((4-cyanophenyl)amino)-7,8,9,10-tetrahydrobenzo(4,5)imidazole[1,2-b]isoquinoline-6-carbonitrile]
- IC50 [2]: 600 nM
- improvement of USP22i-S02 inhibitory activity ([2]; cyano group at R1 position of E ring, versus USP22i-S02): at least 8 folds
- USP22 inhibitory activity relative to USP22i-S02 ([2]; in vitro deubiquitination assay): most potent USP22 inhibitory activity
- improvement of inhibitory efficacy ([2]; versus S02, in vitro and cell-based studies collectively): 4-8 folds
- efficacy in suppressing PD-L1 expression ([3]; A549 cells, S02-S106 at 2 μM versus S02 at 15 μM): better efficacy than S02 at 15 μM
- IC50 ([3]; Homo sapiens, A549 cells, 48 hours, read-out: IC50 inhibition of PD-L1 expression): ~3200 nM
- PD-L1 expression in USP22-null A549 cells ([3]; USP22-null A549 cells): did not further reduce PD-L1 expression
- PD-L1 expression in WT A549 cells ([3]; WT A549 cells): dramatically inhibited PD-L1 expression to a level comparable to that of USP22-null A549 cells
- cytotoxicity to Tregs [1]: least cytotoxicity
- toxicity [1]: without increasing its toxicity
- toxicity ([1]; listed as USP22i-S02-S106): without increasing the cytotoxicity
- decrease of FoxP3 expression in nTregs ([4]; 2 μg/mL, two days): higher efficacy compared to usp22i-s02
- FoxP3 expression levels in Tregs ([4]; concentration of 1-2 ug): dose dependently reduced

Compound: N#Cc1c2c(c(Nc3ccc(CN)cc3)n3c1nc1ccccc13)CCCC2 [Compound S02-S113, (11-((4-aminomethyl)phenyl)amino)-7,8,9,10-tetrahydrobenzo(4,5)imidazole[1,2-b]isoquinoline-6-carbonitrile]
- IC50 [2]: 300 nM
- cytotoxicity to Tregs [1]: modest toxicity
- toxicity [1]: highly toxic
